Results as given in US20250270274A1, “SUPER LONG-LASTING GLP1 OR GLP1/GIP ANALOGUE DRUG FOR TYPE-2 DIABETES AND OBESITY” (Serpentide Inc., priority 2024, published 2025).
Several values for one entry are separate records, joined by “and”; a condition that tells them apart may be missing. Identical values can stand only once.

How the values were obtained:
[1] = cited from earlier work
C57BL mice = test: Intraperitoneal glucose tolerance test (IPGTT) after single SC injection; assay type: in vivo; details: for glucose-lowering effect (IPGTT): single SC, P19 15 nmol/kg, P28 10 or 30 nmol/kg (FIG. 5 legend); for glucose reduction (IPGTT): single SC 100 or 300 nmol/kg
Protocol: The effect of the fusion proteins on glucose tolerance was determined in C57BL mice (Beijing Vital River Laboratory Animal Technology Co., Ltd.). Each group (6 mice per group) received a single subcutaneous injection of PBS vehicle control, dulaglutide (TRULICITY® brand) (Vetter Pharma-Fertigung GmbH & Co. […] Intraperitoneal glucose tolerance tests (IPGTT) were performed on Day 1, 7, 14, 21, up to 28 after 6 hours fasting with tail vein blood glucose measurements at 0, 15, 30, 60, and 120 minutes.

DIO mice = test: 28-day study in DIO mice: body weight, blood glucose, food intake; assay type: in vivo; details: for weight loss: after 28 days
Protocol: To further characterize and understand the efficacy of the fusion proteins, body weight and metabolic parameters were measured throughout a 28-day study in DIO mice (Beijing Vital River Laboratory Animal Technology Co., Ltd.).
The effects of all fusion proteins on blood glucose reduction and food intake were determined in the DIO mice described above (FIG. 7A and FIG. 7B). All mice are bled after fasting for 6 hours to measure blood glucose twice weekly.

Row | Molecule | half-life in mice [1] | glucose-lowering effect (IPGTT) (C57BL mice; Day 1) | glucose-lowering effect (IPGTT) (C57BL mice; Day 7) | weight loss (DIO mice; 30 nmol/kg twice weekly) | decrease in body weight compared with dulaglutide (DIO mice; twice weekly) | glucose reduction (IPGTT) (C57BL mice; Day 1) | glucose reduction (IPGTT) (C57BL mice; Day 7 and 14) | glucose reduction (IPGTT) (C57BL mice; Day 21) | weight loss (DIO mice; 10 nmol/kg twice weekly)
1 | CC[C@H](C)[C@H](NC(=O)[C@H](CC(C)C)NC(=O)[C@H](Cc1c[nH]c2ccccc12)NC(=O)[C@H](CCC(N)=O)NC(=O)[C@@H](NC(=O)[C@H](Cc1ccccc1)NC(=O)[C@H](C)NC(=O)[C@H](CCCCNC(=O)COCCOCCNC(=O)COCCOCCNC(=O)CC[C@H](NC(=O)CCCCCCCCCCCCCCCCCCC(=O)O)C(=O)O)NC(=O)[C@H](CCC(N)=O)NC(=O)[C@H](C)NC(=O)[C@@H](NC(=O)[C@H](CCCCN)NC(=O)[C@H](CC(=O)O)NC(=O)[C@H](CC(C)C)NC(=O)C(C)(C)NC(=O)[C@@H](NC(=O)[C@H](CO)NC(=O)[C@H](Cc1ccc(O)cc1)NC(=O)[C@H](CC(=O)O)NC(=O)[C@H](CO)NC(=O)[C@@H](NC(=O)[C@H](Cc1ccccc1)NC(=O)[C@@H](NC(=O)CNC(=O)[C@H](CCC(=O)O)NC(=O)C(C)(C)NC(=O)[C@@H](N)Cc1ccc(O)cc1)[C@@H](C)O)[C@@H](C)O)[C@@H](C)CC)[C@@H](C)CC)C(C)C)C(=O)N[C@@H](C)C(=O)NCC(=O)NCC(=O)N1CCC[C@H]1C(=O)N[C@@H](CO)C(=O)N[C@@H](CO)C(=O)NCC(=O)N[C@@H](C)C(=O)N1CCC[C@H]1C(=O)N1CCC[C@H]1C(=O)N1CCC[C@H]1C(=O)N[C@@H](CO)C(N)=O [P19, Tirzepatide, reference compound] | less than one day | showed glucose-lowering effects | lost all effects | 26% | more significant dose-dependent decrease in body weight | – | – | – | –
2 | dulaglutide [reference compound] | – | – | – | 16.6% | – | very strong glucose reduction | rapidly waned | completely lost effect | 10.9% and 11%
